Measured values as given in patent publication US8933290B2, “Mesh implant” (Sofradim Production SAS, priority 2007, dated 2015).

Tested on: classical pathway of the complement system
Experiment: Anti-complement activity, CH50 hemolytic assay in total human serum
Assay type: biochemical
Conditions: in solution, sheep erythrocytes
Protocol: The anti-complement activity of fucans was tested via a CH50 test, a standard hemolytic assay in total human serum. Complement activation in human serum was induced by the introduction of sheep erythrocytes coated with rabbit antibodies and then recognized as foreign elements. […] The amount of released hemoglobin was then determined by an optical density (OD) measurement at about 414 nm. The human serum dilution was adjusted for a known amount of erythrocytes, in order to lyse about 50% of the red blood cells (CH50). In order to check the impact of the fucan on the complement activation in solution, the fucan was added with the sheep erythrocytes. […] Heparin (heparin […] 173 UI/mg, Choay-Sanofi) and fucan […] RED synthesized in the Laboratoire de Recherche sur les Macromolecules (LRM, CNRS UMR 7540, France) were also tested instead of fucan.

Substance: heparin [heparin H108]
- IC50 (median inhibition concentration), anti-complement activity: about 30 μg/mL
